Article PMC9933482 (ACS Omega, 2023)
Converted amounts (≈) assume the structure as drawn. “Also recorded” adds a separate entry of the source.

What was measured:
[1] = target: human carbonic anhydrase IX (hCAIX) (Homo sapiens, UniProt Q16790); experiment: biochemical
[2] = tested on: human lung fibroblast cell line WI38; experiment: MTT cell viability, normal lung fibroblast WI38; assay type: cell-based; settings: WI-38, read-out: IC50 in μg/mL WI38
MCF-7 cell line = experiment: MTT cytotoxicity assay, MCF-7; assay type: cell-based, human; settings: for IC50: Homo sapiens, MCF7, 24 h, read-out: IC50 in μg/mL MCF-7, MTT, 24 h treatment
HePG-2 cell line = experiment: MTT cytotoxicity assay, HePG-2; assay type: cell-based, human; settings: for IC50: Homo sapiens, HepG2, 24 h, read-out: IC50 in μg/mL HePG-2, MTT, 24 h treatment
[3] = target: recombinant human carbonic anhydrase XII (hCAXII) (Homo sapiens, UniProt O43570); experiment: hCAXII enzyme inhibition assay; assay type: biochemical
recombinant human carbonic anhydrase XII (hCAXII), sequence (O43570 25-291): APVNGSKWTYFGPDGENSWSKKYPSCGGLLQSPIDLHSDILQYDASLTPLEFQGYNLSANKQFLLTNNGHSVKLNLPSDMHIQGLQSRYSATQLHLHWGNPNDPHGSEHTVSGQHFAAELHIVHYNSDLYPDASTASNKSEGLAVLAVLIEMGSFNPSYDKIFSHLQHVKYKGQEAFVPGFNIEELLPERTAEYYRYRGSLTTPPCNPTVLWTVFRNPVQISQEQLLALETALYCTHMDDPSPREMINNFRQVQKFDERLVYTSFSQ

Compound | IC50 [1] [nM] | IC50 [2] [µg/mL] | anticancer/cytotoxic activity in words, MCF-7 (MCF-7 cell line) | IC50 (MCF-7 cell line) [µg/mL] | anticancer/cytotoxic activity in words, HePG-2 (HePG-2 cell line) | IC50 (HePG-2 cell line) [µg/mL] | IC50 in μg/mL HePG-2 (HePG-2 cell line; MTT, 24 h treatment) [µg/mL] | IC50 [3] [nM]
O=C1NC(=S)C(=Cc2cn(-c3ccccc3)nc2-c2ccc(Br)cc2)S1 [compound 3e, 5-[(3-(4-Bromophenyl)-1-phenyl-1H-pyrazol-4-yl)methylene]-4-thioxo-2-thiazolidinone] | 349 ± 11 | 41.5 ± 2.9 (≈ 93.8 µM) | most potent cytotoxic agent in this series; also recorded: strong anticancer activity | 11.2 ± 1.5 (≈ 25.2 µM) | most potent cytotoxic agent in this series; also recorded: strong cytotoxic activity | 7.83 ± 1.5 (≈ 17.7 µM) | 10.66 ± 1.0 (≈ 24.1 µM) | 556 ± 16
O=C1C2Sc3[nH]c(=O)sc3C(c3cn(-c4ccccc4)nc3-c3ccccc3)C2C(=O)N1c1ccccc1 (stereo not shown) [compound 5a, 8-(1,3-Diphenyl-1H-pyrazol-4-yl)-6-phenyl-7a,8-dihydropyrrolo[3′,4′:5,6]-thiopyrano[2,3-d]thiazole-2,5,7(3H,4aH,6H)-trione] | – | 65.7 ± 1.1 (≈ 122 µM) | – | 30.3 ± 0.4 (≈ 56.5 µM) | – | 38.4 ± 2.1 (≈ 71.6 µM) | – | –
N#CC1CSc2[nH]c(=O)sc2C1c1cn(-c2ccccc2)nc1-c1ccc(Cl)cc1 (stereo not shown) [compound 7d, 7-(3-(4-Chlorophenyl)-1-phenyl-1H-pyrazol-4-yl)-2-oxo-3,5,6,7-tetra-hydro-2H-thiopyrano[2,3-d]thiazole-6-carbonitrile] | – | 39.5 ± 1.7 (≈ 87.6 µM) | weak activity | 67.3 ± 3.7 (≈ 149 µM) | weak activity | 73 ± 4.3 (≈ 162 µM) | – | –
COc1ccc(-c2nn(-c3ccccc3)cc2C2c3sc(=O)[nH]c3SC3C(=O)N(c4ccccc4)C(=O)C32)cc1 (stereo not shown) [compound 5e, 8-(3-(4-Methoxyphenyl)-1-phenyl-1H-pyrazol-4-yl)-6-phenyl-7a,8-dihydro-pyrrolo-[3′,4′:5,6]thiopyrano[2,3-d]thiazole-2,5,7(3H,4aH,6H)-trione] | – | 51.7 ± 3.7 (≈ 91.2 µM) | – | 35.7 ± 72 (≈ 63 µM) | – | 30.7 ± 0.3 (≈ 54.2 µM) | – | –
O=C1C2Sc3[nH]c(=O)sc3C(c3cn(-c4ccccc4)nc3-c3ccc(Cl)cc3)C2C(=O)N1c1ccccc1 (stereo not shown) [compound 5f, 8-(3-(4-Chlorophenyl)-1-phenyl-1H-pyrazol-4-yl)-6-phenyl-7a,8-dihydro-pyrrolo[3′,4′:5,6]-thiopyrano[2,3-d]thiazole-2,5,7(3H,4aH,6H)-trione] | – | 43 ± 3.1 (≈ 75.3 µM) | almost moderate activity | 25.4 ± 2.1 (≈ 44.5 µM) | almost moderate activity | 29 ± 2.1 (≈ 50.8 µM) | – | –
O=C1C2Sc3[nH]c(=O)sc3C(c3cn(-c4ccccc4)nc3-c3ccc(Br)cc3)C2C(=O)N1c1ccccc1 (stereo not shown) [compound 5g, 8-(3-(4-Bromophenyl)-1-phenyl-1H-pyrazol-4-yl)-6-phenyl-7a,8-dihydro-pyrrolo[3′,4′:5,6]-thiopyrano[2,3-d]thiazole-2,5,7(3H,4aH,6H)-trione] | – | 24.9 ± 2 (≈ 40.4 µM) | weakly active | 42.9 ± 2.7 (≈ 69.7 µM) | weakly active | 45 ± 3 (≈ 73 µM) | – | –
CCOC(=O)C1CSc2[nH]c(=O)sc2C1c1cn(-c2ccccc2)nc1-c1ccc(OC)cc1 (stereo not shown) [compound 7h, Ethyl 7-(3-(4-Methoxyphenyl)-1-phenyl-1H-pyrazol-4-yl)-2-oxo-3,5,6,7-tetrahydro-2H-thiopyrano[2,3-d]thiazole-6-carboxylate] | 133 ± 6 | 25.3 ± 2.2 (≈ 51.3 µM) | strong cytotoxicity | 11.4 ± 1.5 (≈ 23 µM) | strong cytotoxicity | 12.2 ± 1.1 (≈ 24.7 µM) | – | 409 ± 22
CCOC(=O)C1CSc2[nH]c(=O)sc2C1c1cn(-c2ccccc2)nc1-c1ccccc1 (stereo not shown) [compound 7f, Ethyl 7-(1,3-Diphenyl-1H-pyrazol-4-yl)-2-oxo-3,5,6,7-tetrahydro-2H-thiopyrano[2,3-d]thiazole-6-carboxylate] | 928 ± 45 | 44.5 ± 4.5 (≈ 96 µM) | moderate anticancer activity | 15.9 ± 2.3 (≈ 34.3 µM) | moderate anticancer activity | 13.4 ± 1.2 (≈ 28.8 µM) | – | 1050 ± 57
Cc1ccc(-c2nn(-c3ccccc3)cc2C=C2SC(=O)NC2=S)cc1 [compound 3b, 5-[(3-(4-Methylphenyl)-1-phenyl-1H-pyrazol-4-yl)methylene]-4-thioxo-2-thiazolidinone] | – | 25.3 ± 2.1 (≈ 66.9 µM) | weak activity | 56.3 ± 3.4 (≈ 149 µM) | weak activity | 62.2 ± 3.2 (≈ 165 µM) | – | –
COc1cccc2c1C(=O)c1c(O)c3c(c(O)c1C2=O)C[C@@](O)(C(=O)CO)C[C@@H]3O[C@H]1C[C@H](N)[C@H](O)[C@H](C)O1 [doxorubicin, reference compound] | – | 8.87 ± 0.6 (≈ 16.3 µM) | – | – | – | – | – | –
Cc1ccc(-c2nn(-c3ccccc3)cc2C2c3sc(=O)[nH]c3SCC2C#N)cc1 (stereo not shown) [compound 7b, 7-(3-(4-Methylphenyl)-1-phenyl-1H-pyrazol-4-yl)-2-oxo-3,5,6,7-tetra-hydro-2H-thiopyrano-[2,3-d]thiazole-6-carbonitrile] | – | 41.4 ± 1.7 (≈ 96 µM) | – | 35 ± 2.3 (≈ 81.4 µM) | – | 30.4 ± 1.1 (≈ 70.7 µM) | – | –
O=C1NC(=S)C(=Cc2cn(-c3ccccc3)nc2-c2ccccc2)S1 [compound 3a, 5-[(1,3-Diphenyl-1H-pyrazol-4-yl)methylene]-4-thioxo-2-thiazolidinone] | – | 28.2 ± 2.3 (≈ 77.6 µM) | weak activity | 52.1 ± 3.1 (≈ 143 µM) | weak activity | 65.8 ± 3.3 (≈ 181 µM) | – | –
COc1ccc(-c2nn(-c3ccccc3)cc2C=C2SC(=O)NC2=S)cc1 [compound 3c, 5-[(3-(4-Methoxyphenyl)-1-phenyl-1H-pyrazol-4-yl)methylene]-4-thioxo-2-thiazolidinone] | – | 64.5 ± 3.8 (≈ 164 µM) | moderate activity | 37.6 ± 3.4 (≈ 95.5 µM) | moderate activity | 31.2 ± 2.6 (≈ 79.3 µM) | – | –
O=C1NC(=S)C(=Cc2cn(-c3ccccc3)nc2-c2ccc(Cl)cc2)S1 [compound 3d, 5-[(3-(4-Chlorophenyl)-1-phenyl-1H-pyrazol-4-yl)methylene]-4-thioxo-2-thiazolidinone] | – | 71.2 ± 4.2 (≈ 179 µM) | moderate activity | 30.8 ± 2.2 (≈ 77.5 µM) | moderate activity | 38.2 ± 2.7 (≈ 96 µM) | – | –
COc1ccc(-c2nn(-c3ccccc3)cc2C2c3sc(=O)[nH]c3SCC2C#N)cc1 (stereo not shown) [7c, 7-(3-(4-Methoxyphenyl)-1-phenyl-1H-pyrazol-4-yl)-2-oxo-3,5,6,7-tetra-hydro-2H-thiopyrano[2,3-d]thiazole-6-carbonitrile] | – | 51.9 ± 3.4 (≈ 116 µM) | – | 29.4 ± 1.1 (≈ 65.9 µM) | – | 24.1 ± 2.9 (≈ 54 µM) | – | –
N#CC1CSc2[nH]c(=O)sc2C1c1cn(-c2ccccc2)nc1-c1ccccc1 (stereo not shown) [compound 7a, 7-(1,3-Diphenyl-1H-pyrazol-4-yl)-2-oxo-3,5,6,7-tetrahydro-2H-thiopyrano-[2,3-d]thiazole-6-carbonitrile] | – | 54.6 ± 3.5 (≈ 131 µM) | – | 23.8 ± 1.9 (≈ 57 µM) | – | 26.8 ± 3.3 (≈ 64.4 µM) | – | –
